In ChEMBL document CHEMBL1135800, “Carbonic anhydrase inhibitors: anticonvulsant sulfonamides incorporating valproyl and other lipophilic moieties” (J Med Chem, 2002):

Experiments:
[1] = system: Mus musculus; experiment: Anticonvulsant activity in mice by MES test at 0.5 h following intraperitoneal injection of 30 mg/kg dose.; type: functional
[2] = biological target: Carbonic anhydrase 1 (Homo sapiens, UniProt P00915)
Description: Inhibitory effect on human carbonic anhydrase I

[3] = system: Mus musculus; experiment: Anticonvulsant activity in mice by MES test at 3.0 hr following intraperitoneal injection of 30 mg/kg dose.; type: functional
[4] = biological target: Carbonic anhydrase 2 (Homo sapiens, UniProt P00918)
Description: Inhibitory effect on human Carbonic anhydrase II

[5] = biological target: T1, Carbonic anhydrase 4 (Bos taurus, UniProt Q95323)
T1 sequence (Q95323 whole entry): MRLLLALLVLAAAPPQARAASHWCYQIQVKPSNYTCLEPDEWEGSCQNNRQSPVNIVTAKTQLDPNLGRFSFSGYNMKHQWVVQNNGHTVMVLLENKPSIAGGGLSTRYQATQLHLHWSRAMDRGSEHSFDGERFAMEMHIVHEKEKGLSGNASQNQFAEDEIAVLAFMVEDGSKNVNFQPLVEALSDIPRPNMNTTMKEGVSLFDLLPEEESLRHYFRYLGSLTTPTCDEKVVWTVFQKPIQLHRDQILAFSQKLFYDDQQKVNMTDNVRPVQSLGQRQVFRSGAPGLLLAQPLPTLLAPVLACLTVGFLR
Description: Inhibitory effect on bovine Carbonic anhydrase IV

[6] = system: Mus musculus; experiment: Anticonvulsant activity in mice by MES test at 3.0 hr following intraperitoneal injection of 30 mg/kg dose; type: functional
[7] = system: Mus musculus; experiment: Anticonvulsant activity in mice by MES test at 0.5 hr following intraperitoneal injection of 10 mg/kg dose.; type: functional
[8] = system: Mus musculus; experiment: Anticonvulsant activity in mice by MES test at 3.0 hr following intraperitoneal injection of 10 mg/kg dose.; type: functional
[9] = system: Mus musculus; experiment: Anticonvulsant activity in mice by MES test at 0.5 hr following intraperitoneal injection of 30 mg/kg dose; type: functional
[10] = system: Mus musculus; experiment: Anticonvulsant activity in mice by MES test at 3.0 h following intraperitoneal injection of 30 mg/kg dose; type: functional
[11] = system: Mus musculus; experiment: Anticonvulsant activity in mice by MES test at 3.0 hr following intraperitoneal injection of 10 mg/kg dose; type: functional
[12] = system: Mus musculus; experiment: Anticonvulsant activity in mice by MES test at 0.5 hr following intraperitoneal injection of 10 mg/kg dose; type: functional
[13] = organism: Mus musculus; experiment: MES test: number of mice treated / total number of mice 4.0 h; type: functional
[14] = Activity in MES test with six to eight OFI male mice for each time at 30 mg/kg dose at 6.0 h; type: functional, Mus musculus
[15] = Activity in MES test with six to eight OFI male mice for each time at 30 mg/kg dose at 3.0 h; type: functional, Mus musculus
[16] = Activity in MES test with six to eight OFI male mice for each time at 30 mg/kg dose at 2.0 h; type: functional, Mus musculus
[17] = organism: Mus musculus; experiment: MES test: number of mice treated / total number of mice at 2.0 h; type: functional
[18] = Activity in MES test with six to eight OFI male mice for each time at 30 mg/kg dose at 4.0 h; type: functional, Mus musculus
[19] = organism: Mus musculus; experiment: MES test: number of mice treated / total number of mice at 1.0 h; type: functional
[20] = Activity in MES test with six to eight OFI male mice for each time at 30 mg/kg dose at 0.5 h; type: functional, Mus musculus
[21] = organism: Mus musculus; experiment: MES test: number of mice treated / total number of mice 6.0 h; type: functional
[22] = organism: Mus musculus; experiment: MES test: number of mice treated / total number of mice at 3.0 h; type: functional
[23] = Activity in MES test with six to eight OFI male mice for each time at 30 mg/kg dose at 1.0 h; type: functional, Mus musculus
[24] = organism: Mus musculus; experiment: MES test: number of mice treated / total number of mice at 0.5 h; type: functional

Carbonic anhydrase 1, sequence (P00915 whole entry): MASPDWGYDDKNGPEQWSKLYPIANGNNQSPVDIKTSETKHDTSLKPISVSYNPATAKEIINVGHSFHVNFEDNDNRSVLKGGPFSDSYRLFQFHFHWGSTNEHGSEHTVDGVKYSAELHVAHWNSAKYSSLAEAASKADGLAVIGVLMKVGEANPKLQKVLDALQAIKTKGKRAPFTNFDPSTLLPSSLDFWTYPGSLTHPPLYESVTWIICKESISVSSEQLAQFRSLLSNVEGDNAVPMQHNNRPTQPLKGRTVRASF

SMILES | Ki [2] [µM] | Ki [4] [µM] | Ki [5] [µM] | Protected mice [3] [%] | further results
NS(=O)(=O)c1nnc(NS(=O)(=O)Cc2ccccc2)s1 | 0.007 | 0.005 | 0.006 | 38 | Protected mice [1]: 67%
NS(=O)(=O)c1nnc(NC(=O)CCNS(=O)(=O)c2ccc(I)cc2)s1 | 0.26 | 0.0012 | 0.12 |  | Protected mice [6]: 25%; Protected mice [1]: 33%
NS(=O)(=O)c1nnc(NC(=O)C23C[C@H]4C[C@@H](C2)C[C@@H](C3)C4)s1 | 0.85 |  | 0.065 | 96 | Protected mice [7]: 25%; Protected mice [1]: 83%; Protected mice [8]: 93%
NS(=O)(=O)c1nnc(NS(=O)(=O)c2ccc(NC(=O)[C@@H]3C4C=CC(C4)C3C(=O)O)cc2)s1 (stereo partly drawn) | 0.0055 | 0.0015 | 0.004 | 33 | Protected mice [1]: 25%
CC(=O)/N=c1/sc(S(N)(=O)=O)nn1C [METHAZOLAMIDE] |  |  |  | 100 | Protected mice [7]: 75%; Protected mice [1]: 83%; Protected mice [8]: 88%
Cc1ccc(S(=O)(=O)Nc2nnc(S(N)(=O)=O)s2)cc1 | 0.005 | 0.004 | 0.003 | 75 | Protected mice [9]: 92%; Protected mice [7]: 12%; Protected mice [8]: 62%
CCCC(CCC)C(=O)NCCC(=O)Nc1nnc(S(N)(=O)=O)s1 | 0.36 | 0.009 | 0.076 |  | 
Cc1ccc(S(=O)(=O)NC(=O)Nc2nnc(S(N)(=O)=O)s2)cc1 | 0.003 | 0.004 | 0.012 | 33 | Protected mice [1]: 8%
CC1(C)O[C@@H]2[C@@H](CO[C@@]3(COS(N)(=O)=O)OC(C)(C)O[C@@H]23)O1 [TOPIRAMATE] |  |  | 0.054 |  | Protected mice [9]: 100%; Protected mice [10]: 83%; Protected mice [11]: 50%; Protected mice [12]: 62%
CC(C)(C)C(=O)Nc1nnc(S(N)(=O)=O)s1 | 0.11 |  | 0.046 | 100 | Protected mice [9]: 75%; Protected mice [7]: 44%; Protected mice [8]: 87%
CCCC(CCC)C(=O)Nc1c(S(N)(=O)=O)cc(S(N)(=O)=O)c(Cl)c1Cl | 0.97 | 0.026 | 0.155 |  | 
CC(C)(C)OC(=O)Nc1nnc(S(N)(=O)=O)s1 | 0.46 | 0.009 | 0.13 | 60 | Protected mice [1]: 75%
CCCC(CCC)C(=O)OCCc1ccc(S(N)(=O)=O)cc1 | 1.3 | 0.844 | 0.313 |  | 
NS(=O)(=O)c1nnc(NC(=O)c2ccccc2)s1 | 0.038 |  | 0.021 | 25 | Protected mice [1]: 83%
CCCC(CCC)C(=O)OCc1ccc(S(N)(=O)=O)cc1 | 1.5 | 0.115 | 0.333 |  | 
COc1cc(C(=O)Nc2nnc(S(N)(=O)=O)s2)cc(OC)c1OC | 0.9 | 0.01 | 0.051 | 67 | Protected mice [9]: 25%

Second part, led by results:

Ki [2] [µM] | Ki [4] [µM] | Ki [5] [µM] | SMILES | Protected mice [3] [%] | further results
0.95 | 0.05 | 0.125 | CCCC(CCC)C(=O)Nc1ccc(S(N)(=O)=O)cc1Cl |  | 
35.6 | 0.3 | 0.95 | CCCC(CCC)C(=O)NNc1ccc(S(N)(=O)=O)cc1 |  | 
0.07 | 0.01 | 0.042 | CCCC(CCC)C(=O)/N=c1/sc(S(N)(=O)=O)nn1C |  | 
0.8 | 0.07 | 0.133 | CCCC(CCC)C(=O)Nc1cc(Cl)c(S(N)(=O)=O)cc1S(N)(=O)=O |  | 
0.05 | 0.007 | 0.013 | CCCC(CCC)C(=O)OCCOc1ccc2nc(S(N)(=O)=O)sc2c1 |  | 
3.5 | 0.084 | 0.2 | CCCC(CCC)C(=O)NCCc1ccc(S(N)(=O)=O)cc1 |  | 
0.05 | 0.007 | 0.015 | CCCC(CCC)C(=O)Oc1ccc2nc(S(N)(=O)=O)sc2c1 |  | 
19 | 0.221 | 0.74 | CCCC(CCC)C(=O)Nc1cccc(S(N)(=O)=O)c1 |  | 
1 | 0.045 | 0.11 | CCCC(CCC)C(=O)Nc1ccc(S(N)(=O)=O)cc1F |  | 
22.5 | 0.24 | 0.63 | CCCC(CCC)C(=O)Nc1ccc(S(N)(=O)=O)cc1 |  | 
0.6 | 0.036 | 0.049 | CCCC(CCC)C(=O)Nc1ccc(S(N)(=O)=O)cc1Br |  | 
0.05 | 0.006 | 0.025 | CCCC(CCC)C(=O)Nc1nnc(S(N)(=O)=O)s1 |  | Protected mice [6]: 93%; Protected mice [9]: 96%; No. of mice [13]: 4; Protected mice [14]: 63%; Protected mice [15]: 93%; Protected mice [16]: 100%; Protected mice [11]: 100%; No. of mice [17]: 8; Protected mice [18]: 50%; No. of mice [19]: 6.5; Protected mice [20]: 96%; Protected mice [12]: 25%; No. of mice [21]: 5; No. of mice [22]: 7; Protected mice [23]: 81%; No. of mice [24]: 7.5
3.7 | 0.096 | 0.21 | CCCC(CCC)C(=O)NCc1ccc(S(N)(=O)=O)cc1 |  | 
23 | 0.255 | 0.95 | CCCC(CCC)C(=O)Nc1ccccc1S(N)(=O)=O |  | 
0.55 | 0.043 | 0.085 | CCCC(CCC)C(=O)Nc1ccc(S(N)(=O)=O)cc1I |  | 
0.062 | 0.007 | 0.016 | CCCC(CCC)C(=O)Nc1ccc2nc(S(N)(=O)=O)sc2c1 |  | 
